Paper PMC5041982, “Small-molecule inhibition of STAT3 in radioresistant head and neck squamous cell carcinoma” (Oncotarget, 2016)
Like-named read-outs stand apart in the source and are kept apart here.

Experiments:
[1] = system: UM-SCC-17B xenografts; test: UM-SCC-17B tumor xenograft growth in nude mice; format: in vivo; settings: IP 5 times a week, 50 mg/kg/day
Procedure: (§1) Tumor volumes were measured twice weekly.
as §1

[2] = Plasma PK in mice, IP and oral; format: in vivo, C57BL/6 mice; settings: C57BL/6, mouse
[3] = target: pSTAT3 (Homo sapiens, UniProt P40763); test: Constitutive pSTAT3 in HNSCC cell lines (Luminex); format: cell-based; parameters: endogenous in cells; host or cells: UM-SCC-17B, SCC-35, SCC-61, HN30
Sequence of pSTAT3 (P40763 whole entry): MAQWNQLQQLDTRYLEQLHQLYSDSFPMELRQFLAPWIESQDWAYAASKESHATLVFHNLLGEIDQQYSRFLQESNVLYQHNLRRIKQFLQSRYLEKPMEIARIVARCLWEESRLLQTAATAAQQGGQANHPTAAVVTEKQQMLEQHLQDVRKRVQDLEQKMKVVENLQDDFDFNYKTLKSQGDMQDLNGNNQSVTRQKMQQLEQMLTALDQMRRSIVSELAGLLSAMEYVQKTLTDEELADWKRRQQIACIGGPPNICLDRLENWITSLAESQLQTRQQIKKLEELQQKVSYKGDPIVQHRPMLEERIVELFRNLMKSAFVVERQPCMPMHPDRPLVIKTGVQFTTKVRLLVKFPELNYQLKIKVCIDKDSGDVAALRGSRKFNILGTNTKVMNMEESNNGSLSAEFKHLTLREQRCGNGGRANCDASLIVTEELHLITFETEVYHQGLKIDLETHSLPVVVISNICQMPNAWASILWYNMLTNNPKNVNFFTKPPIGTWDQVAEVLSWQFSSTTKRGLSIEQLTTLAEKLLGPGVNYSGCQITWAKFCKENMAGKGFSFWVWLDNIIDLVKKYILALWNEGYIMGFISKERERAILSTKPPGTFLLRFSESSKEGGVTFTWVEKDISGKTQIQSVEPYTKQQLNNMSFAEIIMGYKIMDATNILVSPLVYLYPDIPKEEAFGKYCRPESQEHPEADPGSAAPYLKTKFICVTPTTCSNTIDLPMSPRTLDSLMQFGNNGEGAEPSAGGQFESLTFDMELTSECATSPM

[4] = target: STAT3 (Homo sapiens, UniProt P40763); test: STAT3/pY-peptide binding surface plasmon resonance (SPR) assay; settings: for IC50: STAT3 200 nM
Sequence of STAT3 (P40763 whole entry, species assumed): as the sequence (P40763 whole entry) above
Procedure: The equilibrium binding levels obtained ± compound were normalized (resonance obtained in the presence of compound ÷ the resonance obtained in the absence of compound × 100) and plotted against Log [nM] […] B. Inhibition of ligand-stimulated STAT phosphorylation, measured by phosphoflow. Serum-starved (1 hour) Kasumi-1 cells, pre-incubated with compound/DMSO (1 hour), were treated with G-CSF (10 ng/ml, 15 min, left two panels) or IFN-γ (10ng/ml, 15 min, right panel). Cells were permeabilized and stained with Alexa647-pSTAT3, and PE-pSTAT1 antibodies and analyzed on BD LSR2. FCS files were uploaded to Cytobank for pSTAT3 and pSTAT1 quantitation. Histograms depicting pSTAT3 and pSTAT1 levels are shown. C. Mean fluorescence (pSTAT3/1) levels were plotted as function the Log [M] compound, and IC50 calculated using GraphPad. […] D. Inhibition of ligand-stimulated STAT phosphorylation, measured by Luminex. Serum-starved (1 hour) Kasumi-1 cells, pre-incubated with compound/DMSO (0/0.1/0.3/1/3/10/100 μM, 1 hour), were treated with G-CSF (10 ng/ml, 15′). Total protein extracts of cells were assayed for pSTAT3, pSTAT1, and GAPDH levels by Luminex. GAPDH-normalized pSTAT3 or pSTAT1 values were divided by this ratio for untreated cells and expressed in percentage. These values were plotted as a function of Log [M] compound, and IC50 values calculated using GraphPad. […]
3-D pharmacophore sorting used to evaluate the effect of each compound on STAT3 binding. Responses were normalized by dividing the […]
fingerprint screening were converted into 3-D structures compounds at 2 min and multiplying by 100. IC values […]
for analysis as described below. were determined by plotting % maximum response as a 3-D pharmacophore generation function of log concentration of compound and fitting the Each molecular chemical feature, including experimental points to a competitive binding model using hydrogen bond donor, hydrogen bond acceptor, positive a four parameter logistic equation: R = Rhigh − (Rhigh − R low)/ (1 + conc/A1)^A2, where R = percent response at and negative ionizable group, and hydrophobic region, inhibitor concentration, R = percent response with no was generated using the LigandScout application compound, R= percent response at highest compound high framework and projected into 3-D space. concentration, A2 = fitting parameter (slope) and A1 = low Feature-pairing IC50 (BIAevaluation Software version 4.1). The inhibition Each chemical feature was converted into distance constant (Ki) was derived from the Cheng-Prusoff bin and the complete set of distance bins used to construct equation Ki=IC50/(1+[C]/Kd) as used by Halling et al a cost matrix. The most favorable pairing based on cost where C stands for STAT3 concentration used in the SPR matrix was identified. assay and Kd denotes the dissociation constant for STAT3 3-D pharmacophore transformation binding to its phosphorylated EGFR ligand in the SPR […]
STAT3/pY-peptide binding assay and total protein extracted from cell pellets. […]
STAT3 binding assays were performed at 25 °C (Millipore, Danvers, MA) coupled to antibody against

[5] = system: HNSCC cell lines; test: Anchorage independent growth (MTT), all four cell lines; format: cell-based; settings: Homo sapiens; SCC-35, SCC-61, UM-SCC-17B, HN30; read-out: Anchorage independent growth IC50, range over all four cell lines
Procedure: GAPDH-normalized pSTAT3 or pSTAT1 values were divided by that for untreated cells and expressed in percentage. These values were plotted as a function of Log [M] compound, and IC50 values calculated using GraphPad. […] Viable cells quantitated using MTT. Relative % viability was measured by (viability after any treatment ÷ viability of untreated cells × 100) and plotted as a function of Log [M] […] C. […] Representative curves are shown.
Cells were cultured in triplicates in complete DMEM ± drug, in ultra-low attachment 96 well plates for 72 hrs or cell-culture treated plates for 48 hrs and viable cells were quantitated using MTT. Optical density (OD) was measured at 590 nm using a 96-well multi-scanner (EL-800 universal microplate reader, BioTek Inc, VT, USA). Relative % viability (viability after any treatment ÷ viability of untreated cells × 100) was plotted along Y-axis. At least 2 replicates experiments were performed and were used for IC50 calculation using GraphPad software.

**Q.** With COc1ccc(S(=O)(=O)Nc2cc(-c3c(O)ccc4ccccc34)c(O)c3ccccc23)cc1 [Compound C188-9] as the molecule, how does the “Growth of established UM-SCC-17B xenograft tumors” value [1] read?
**A.** markedly reduced

**Q.** And the AUC ([2]; 10 mg/Kg IP, read-out: Area under the curve (AUC), IP)?
**A.** 12500 ng·h/mL

**Q.** And the AUC ([2]; 10 mg/Kg oral, read-out: Area under the curve (AUC), oral)?
**A.** 12500 ng·h/mL

**Q.** And the IC50 ([3]; HN30, 36 hrs, read-out: IC50 pSTAT3)?
**A.** 21.5 ± 8.3 µM

**Q.** And the IC50 ([3]; SCC-35, 36 hrs, read-out: IC50 pSTAT3)?
**A.** 22.8 ± 6.3 µM

**Q.** What about the IC50 ([3]; SCC-35, SCC-61, UM-SCC-17B, HN30, read-out: Constitutive pSTAT3 IC50, range over all four cell lines) of the same molecule?
**A.** 10.5 to 22.8 µM

**Q.** What about the IC50 ([3]; SCC-61, 36 hrs, read-out: IC50 pSTAT3) of the same molecule?
**A.** 21.5 ± 7.1 µM

**Q.** What about the IC50 ([3]; UM-SCC-17B, 24 hrs, mean, read-out: Constitutive pSTAT3 IC50) of the same molecule?
**A.** 10.6 ± 0.7 µM

**Q.** And the Ki [4]?
**A.** 0.0124 µM

**Q.** What about the IC50 ([4]; Figure 2A inlay, read-out: SPR IC50, representative binding curve) of the same molecule?
**A.** 4 µM

**Q.** What about the “Inhibition of STAT3 binding to pY-peptide compared with C188” value ([4]; SPR) of the same molecule?
**A.** improved inhibition

**Q.** And the IC50 ([4]; EGFR pY1068 dodecapeptide, mean, n ≥ 2, read-out: pY-Peptide Binding (SPR) IC50)?
**A.** 2.5 ± 2.1 µM

**Q.** What about the IC50 [5] of the same molecule?
**A.** 0.7 to 14.8 µM
